Laboratory results from patent US6395785B1 (Orion Corporation, priority 1998, dated 2002).
Read-outs that look alike come from different tables or passages of the source.

Tests used:
[1] = test system: uterine weight in intact adult female Sprague-Dawley rats; experiment: Uterine weight in intact adult female rats; conditions: p.o. 3.17 mg/kg daily or equimolar dose, two weeks
Protocol: (§2) The effects on uterine weight and on serum cholesterol levels were studied in intact and ovarectomized adult female Sprague-Dawley rats. […] In the ovarectomy study the study drug was given p.o. at a daily dose of 0.1, 1 or 10 mg/kg for 4 weeks and comparison was made with the corresponding Z-isomer and estradiol (100 μg/kg). The serum cholesterol content was determined by an enzymatic method. In the ovarectomy study the serum cholesterol and cholesterol precursor molecule content was determined by gas-liquid chromatography.

[2] = test system: uterine weight in ovarectomized adult female Sprague-Dawley rats; experiment: Uterine weight in ovarectomized adult female rats; type: in vivo; conditions: for Relative uterine weight (control level taken as 1.00): ovarectomized rats
Protocol: as §2

[3] = test system: estrogen-induced increase in uterine weight
Protocol: (§1) The estrogenic/antiestrogenic activity of the study drug was tested by measuring the effect on the uterine weight in immature (18 days old) female Sprague-Dawley rats. The compound was given p.o. in a PEG-solution for 3 days (n=5/group). At the same time the ability of the study drug to inhibit estrogen-induced increase in uterine weight was studied in rats given estradiol 50 μg/kg s.c. Comparison was made with the corresponding Z-isomer.

[4] = test system: uterine weight in immature female Sprague-Dawley rats; conditions: for Average uterine weight (weight after mere E2-treatment was taken as 1.00): drug alone
Protocol: as §1

serum cholesterol [5] = conditions: for Serum cholesterol content (control level taken as 1.00): ovarectomized rats; for Decrease of serum cholesterol level (maximum): ovarectomy study, over the doses tested
Protocol: as §2

[6] = test system: serum cholesterol precursor molecule; conditions: ovarectomy study
Protocol: as §2

Hep G2 cell cultures = conditions: for Cholesterol biosynthesis level (% of control): 2 hours, Hep G2; for Effect on cholesterol biosynthesis (in words): in vitro cell culture system, 0.01 to 10 micromolar
Protocol: The effects on cholesterol biosynthesis was studied in vitro in Hep G2 cell cultures using ^14C-acetate as cholesterol precursor. The test compound was added into the culture medium at concentrations from 0.01 to 10 micromolar. After 2 hours the culture was stopped and the newly synthesized cholesterol was quantitated by thin-layer chromatography. Comparison was made with the Z-isomer.

serum cholesterol [7] = experiment: Serum cholesterol in intact adult female rats; conditions: for Serum cholesterol content (control level taken as 1.00; mean ± SD, n = 3): intact rats, p.o. 3.17 mg/kg daily or equimolar dose, two weeks
Protocol: as §2

[8] = 0.1 mg/kg p.o. for 3 days + E2 (estradiol 50 μg/kg s.c.)
[9] = 0.5 mg/kg p.o. for 3 days + E2 (estradiol 50 μg/kg s.c.)
[10] = 1 mg/kg p.o. for 3 days + E2 (estradiol 50 μg/kg s.c.)
[11] = 10 mg/kg p.o. for 3 days + E2 (estradiol 50 μg/kg s.c.)

| Structure (SMILES) | Relative uterine weight (control level taken as 1.00; mean ± SD, n = 3) [1] | Relative uterine weight (control level taken as 1.00) ([2]; 0.1 mg/kg p.o. daily, 4 weeks) | Relative uterine weight (control level taken as 1.00) ([2]; 1 mg/kg p.o. daily, 4 weeks) | Relative uterine weight (control level taken as 1.00) ([2]; 10 mg/kg p.o. daily, 4 weeks) | Average uterine weight (weight after mere E2-treatment was taken as 1.00) [3, 8] | Average uterine weight (weight after mere E2-treatment was taken as 1.00) [3, 9] | Average uterine weight (weight after mere E2-treatment was taken as 1.00) [3, 10] | Average uterine weight (weight after mere E2-treatment was taken as 1.00) [3, 11] | Average uterine weight (weight after mere E2-treatment was taken as 1.00) ([4]; 0.1 mg/kg p.o. for 3 days) | Average uterine weight (weight after mere E2-treatment was taken as 1.00) ([4]; 0.5 mg/kg p.o. for 3 days) | Average uterine weight (weight after mere E2-treatment was taken as 1.00) ([4]; 1 mg/kg p.o. for 3 days) | Average uterine weight (weight after mere E2-treatment was taken as 1.00) ([4]; 10 mg/kg p.o. for 3 days) | Serum cholesterol content (control level taken as 1.00) (serum cholesterol [5]; 1 mg/kg p.o. daily, 4 weeks) | Serum cholesterol content (control level taken as 1.00) (serum cholesterol [5]; 10 mg/kg p.o. daily, 4 weeks) | Decrease of serum cholesterol level (maximum) (serum cholesterol [5]) | Effect on serum cholesterol precursor molecule level (in words) [6] | Cholesterol biosynthesis level (% of control) (Hep G2 cell cultures; 0.01 μM) | Cholesterol biosynthesis level (% of control) (Hep G2 cell cultures; 0.1 μM) | Cholesterol biosynthesis level (% of control) (Hep G2 cell cultures; 1 μM) | Serum cholesterol content (control level taken as 1.00; mean ± SD, n = 3) (serum cholesterol [7]) | other results |
| --- | --- | --- | --- | --- | --- | --- | --- | --- | --- | --- | --- | --- | --- | --- | --- | --- | --- | --- | --- | --- | --- |
| OCCOc1ccc(/C(=C(/CCCl)c2ccccc2)c2ccccc2)cc1 [1271a (Z), Z-2-[4-(4-chloro-1,2-diphenyl-but-1-enyl)phenoxy]ethanol] | 0.75 ± 0.06 | 1.22 | 1.78 | 2.04 | 1.18 | 1.11 | 0.91 | 0.91 | 0.27 | 0.43 | 0.53 | 0.75 | 0.96 | 0.66 | up to 34% | not | 143 % of control | 127 % of control | 129 % of control | 0.65 ± 0.10 | Serum cholesterol content (control level taken as 1.00) (serum cholesterol [5]; 0.5 mg/kg): 0.90; Serum cholesterol content (control level taken as 1.00) (serum cholesterol [5]; 5 mg/kg): 0.89; Cholesterol biosynthesis level (% of control) (Hep G2 cell cultures; 10 μM): 132 % of control; Effect on cholesterol biosynthesis (in words) (Hep G2 cell cultures): had an opposite effect; Efficacy in decreasing serum cholesterol level (in words) (serum cholesterol [7]; intact adult female rats, compared with the other drugs): less effective |
| OCCOc1ccc(/C(=C(\CCCl)c2ccccc2)c2ccccc2)cc1 [1271b (E), E-2-[4-(4-chloro-1,2-diphenyl-but-1-enyl)phenoxy]ethanol] | 0.85 ± 0.07 | 1.54 | 1.50 | 1.53 | 0.81 | 0.82 | 0.57 | 0.83 | 0.37 | 0.45 | 0.44 | 0.75 | 0.62 | 0.23 | up to 77% | increased slightly | 89 % of control | 90 % of control | 89 % of control | 0.43 ± 0.05 | Increase of relative uterus weight ([2]; ovarectomy study, 0.1, 1 or 10 mg/kg p.o., 4 weeks): 1.5 fold; Estrogenic and antiestrogenic effect compared to the corresponding Z-isomer (in words) ([4]; immature rat uterine weight test): approximately equal estrogenic and antiestrogenic effect; Serum cholesterol content (control level taken as 1.00) (serum cholesterol [5]; 0.1 mg/kg p.o. daily, 4 weeks): 0.92; Cholesterol biosynthesis level (% of control) (Hep G2 cell cultures; 10 μM): 84 % of control; Effect on cholesterol biosynthesis (in words) (Hep G2 cell cultures): inhibited slightly cholesterol biosynthesis |
| C[C@]12CC[C@@H]3c4ccc(O)cc4CC[C@H]3[C@@H]1CC[C@@H]2O [Estradiol] | 1.29 ± 0.06 | – | – | – | – | – | – | – | – | – | – | – | – | – | – | – | – | – | – | 0.48 ± 0.09 | Increase of relative uterus weight ([2]; ovarectomy study, estradiol 100 μg/kg): 3.3 fold |
| O=C(c1ccc(OCCN2CCCCC2)cc1)c1c(-c2ccc(O)cc2)sc2cc(O)ccc12 [Raloxifene] | 0.77 ± 0.21 | – | – | – | – | – | – | – | – | – | – | – | – | – | – | – | – | – | – | 0.48 ± 0.09 | – |
| CN(C)CCOc1ccc(/C(=C(/CCCl)c2ccccc2)c2ccccc2)cc1 [Toremifene (E)] | 1.09 ± 0.10 | – | – | – | – | – | – | – | – | – | – | – | – | – | – | – | – | – | – | 0.40 ± 0.18 | – |
